Experimental findings from US9186361B2, “Compounds and compositions for the treatment of parasitic diseases” (Novartis AG, priority 2013, dated 2015) are described below.

In test [1] the test system is L. donovani HU3 strain in mouse peritoneal macrophages. Briefly: Proliferation of L. donovani in mouse peritoneal macrophages (SybrGreen, high-content imaging). In kind it is cell-based. As to conditions: Leishmania donovani, Peritoneal macrophage, 120 h; infected mouse peritoneal macrophages, 5 days; read-out: L. donavani Macrophage EC50. The source says: The activity of a compound according to the present invention for inhibition of parasitemai can be assessed by the parasite proliferation assay. The assay measures the increase in the parasite number in the assayed plate well using a DNA intercalating dye, SYBR Green I® dye (INVITROGEN) to stain Leishmania cell nuclei. It is understood that the assays illustrate the invention without in any way limiting the scope of the invention.
L. donovani HU3 strain is propagated by infecting BALBc mice through tail vein injection with 10^7 Leishmania parasites. Infected mice are allowed to develop infection during 9-11 weeks post-infection. During this time, the parasites accumulate in the infected mouse spleens to large numbers, and the infected mice serve as the source of parasites for the in vitro measurement of compound efficacies. To assay a compound for anti-leishmanial activity, peritoneal macrophages isolated from non-infected BALBc mice are seeded into 384-well plates at density 2×10^4 macrophages per well in 25 mL of medium (RPMI1640, 10% fetal serum albumin, 10 mM HEPES, 1 mM sodium pyruvate, 1% Pen/Strep). Subsequently, the seeded plates are placed into an incubator set to maintain 37° C. temperature and atmosphere with 5% CO2. The next day, Leishmania parasites are isolated from the spleens of mice infected for 9-11 weeks and 4×10^5 isolated parasites in […] of the above media are added to each plate well. Plates are then returned into incubators and infection is allowed to proceed for 24 hours. After the infection of macrophages is completed, […] of compounds of the invention in the above medium, which also contains 5% DMSO, are added to plate wells containing infected macrophages. At the same time control compounds (miltefosine and amphotericin B) and DMSO are added to plates to serve as the positive and negative controls, respectively. After the compound addition, the plates are returned into incubator and cells infected with parasites are cultured for 5 days. At the end of cultivation, […] of 8% paraformaldehyde is added to plate wells and incubated for 15 min at room temperature. Following the incubation, the paraformaldehyde from plate wells is aspirated, and […] of PBS containing 0.2% Triton X-100 is added to wells. After 15 min incubation, the solution is aspirated from wells again, and replaced with SybrGreen Dye solution in PBS (1:125,000 dilution). Infected cells are imaged with Evotec Opera high-content microscope, and the number of parasites in well is determined by counting parasite nuclei visualized by staining with SybrGreen dye. The percentage inhibition of 50%, EC50, is calculated for each compound.
The inhibitory efficacy of the compounds of the invention against proliferation of L. donovani in mouse peritoneal macrophages is provided in Table I.

Test [2] has as its system Leishmania donovani axenic amastigote parasites. Briefly: Assay for Leishmania proliferation in vitro (axenic amastigotes, Cell TiterGlo). It is filed as cell-based. The settings on record: 48 h, 2 day incubation, read-out: L. donovani amastigotes EC50. As to the method: Leishmania donovani axenic amastigote parasites are grown at 37° C., 5% CO2 in media made of RPMI 1640, 4 mM L-glutamine, 20% heat inactivated FBS, 100 units/ml of penicillin and 100 μg/ml of streptomycin, 23 μM Folic Acid, 100 μM Adenosine, 22 mM D-glucose, 25 mM MES. The pH of media is adjusted to 5.5 at 37° C. using HCl. 20 μL of media is first dispensed into 384 well plates and […] of the compounds of invention in DMSO are added to the plate wells. At the same time control compounds and DMSO are added to plates to serve as the positive and negative controls, respectively. 40 μL of parasite culture (9600 parasites) are then added to the plate wells. The plates are then placed into incubators. After 2 day incubation, 20 μL of Cell TiterGlo (Promega) is added to the plate wells. The luminescence signal of each well is measured using the Envision reader (Perkin Elmer). The percentage inhibition of 50%, EC50, is calculated for each of the compounds.
Background: ATP-based viability assays read luminescence as a measure of living cells.

The structures appear in SMILES notation.

With `CC(C)OC(=O)Nc1ccc(Cl)c(-c2nc3ncc(NC(=O)OC(C)C)cc3[nH]2)c1` [Example 4, propan-2-yl N-[2-(2-chloro-5-{[(propan-2-yloxy)carbonyl]amino}phenyl)-1H-imidazo[4,5-b]pyridin-6-yl]carbamate], the EC50 in test [1] worked out at 0.83 µM; in test [2] it was 0.44 µM.
As to `CN(C)/C=N/c1cnc2nc(-c3cc(NC(=O)c4ccco4)ccc3Cl)[nH]c2c1` [Example 50, N-(4-chloro-3-{6-[(E)-[(dimethylamino)methylidene]amino]-1H-imidazo[4,5-b]pyridin-2-yl}phenyl)furan-2-carboxamide], the EC50 in test [1] was 5.1 µM; in test [2], 6 µM.
As to `O=C(Nc1ccc(Cl)c(-c2nc3ncc(NCC4CCNCC4)cc3[nH]2)c1)c1ccco1` [Example 27, N-(4-chloro-3-{6-[(piperidin-4-ylmethyl)amino]-1H-imidazo[4,5-b]pyridin-2-yl}phenyl)furan-2-carboxamide], the EC50 was above 50 µM in test [1] and above 25 µM in test [2].
The like results for `CC(C)(N)COC(=O)Nc1cnc2nc(-c3cc(NC(=O)c4ccco4)ccc3Cl)[nH]c2c1` [Example 23, 2-amino-2-methylpropyl N-{2-[2-chloro-5-(furan-2-amido)phenyl]-1H-imidazo[4,5-b]pyridin-6-yl}carbamate] were, in that order, 34.1 µM and 21 µM.
With `CC(C)OC(=O)Nc1cnc2nc(-c3cc(NC(=O)c4ccco4)ccc3Cl)oc2c1` [Example 76, propan-2-yl N-(2-{2-chloro-5-[(furan-2-yl)carbonylamino]phenyl}-[1,3]oxazolo[4,5-b]pyridin-6-yl)carbamate], the EC50 in test [1] was 0.45 µM; in test [2], 0.26 µM.
On the same counts, the results for `Cc1ccc(C(=O)Nc2ccc(Cl)c(-c3nc4ncc(N)cc4[nH]3)c2)o1` [Example 29, N-(3-{6-amino-1H-imidazo[4,5-b]pyridin-2-yl}-4-chlorophenyl)-5-methylfuran-2-carboxamide] are above 50 µM and above 25 µM.
For the molecule `Cc1cnc(C(=O)Nc2cnc3nc(-c4cc(NC(=O)c5ccco5)ccc4Cl)[nH]c3c2)s1` [Example 1, N-{2-[2-chloro-5-(furan-2-amido)phenyl]-1H-imidazo[4,5-b]pyridin-6-yl}-5-methyl-1,3-thiazole-2-carboxamide], the EC50 was 0.72 µM in test [1] and 0.13 µM in test [2].
Regarding `CN(C)CC(=O)Nc1cnc2nc(-c3cc(NC(=O)c4ccco4)ccc3Cl)[nH]c2c1` [Example 40, N-(4-chloro-3-{6-[2-(dimethylamino)acetamido]-1H-imidazo[4,5-b]pyridin-2-yl}phenyl)furan-2-carboxamide], the EC50 in test [1] was 8.5 µM; in test [2], above 25 µM.
Consider `CC(C)(C)OC(=O)N1CC[C@H](CC(=O)Nc2cnc3nc(-c4cc(NC(=O)c5ccco5)ccc4Cl)[nH]c3c2)C1` [Example 28], for which the results for the EC50 in test [1] and in test [2] were above 50 µM and above 25 µM, respectively.
On to `CC(C)OC(=O)Nc1cnc2nc(-c3cc(NC(=O)N4CCCC4)ccc3Cl)oc2c1` [Example 75, propan-2-yl N-(2-{2-chloro-5-[(pyrrolidin-1-yl)carbonylamino]phenyl}-[1,3]oxazolo[4,5-b]pyridin-6-yl)carbamate], for which the EC50 in test [1] worked out at 0.166 µM; in test [2] it was 0.132 µM.
For `O=C(Nc1ccc(Cl)c(-c2nc3ncc(NC(=O)C4(C(F)(F)F)CCC4)cc3[nH]2)c1)c1ccco1` [Example 37, N-[4-chloro-3-(6-{[1-(trifluoromethyl)cyclobutane]amido}-1H-imidazo[4,5-b]pyridin-2-yl)phenyl]furan-2-carboxamide], the values for the EC50 in test [1] and in test [2] were 0.53 µM and 0.85 µM, respectively.
On the same counts, the results for `O=CNc1cnc2nc(-c3cc(NC(=O)c4ccc(F)o4)ccc3Cl)[nH]c2c1` [Example 74, N-(4-chloro-3-{6-formamido-1H-imidazo[4,5-b]pyridin-2-yl}phenyl)-5-fluorofuran-2-carboxamide] are above 50 µM and 10.8 µM.
Regarding `CC(C)S(=O)(=O)Nc1cnc2nc(-c3cccc(NC(=O)c4ccc(F)o4)c3)[nH]c2c1` [Example 77, 5-fluoro-N-{3-[6-(propane-2-sulfonamido)-1H-imidazo[4,5-b]pyridin-2-yl]phenyl}furan-2-carboxamide], the values for the EC50 in test [1] and in test [2] were 22.9 µM and above 25 µM, respectively.
The like results for `CC(C)S(=O)(=O)Nc1cnc2nc(-c3cc(NC(=O)c4ccc(C#N)o4)ccc3Cl)[nH]c2c1` [Example 60, N-{4-chloro-3-[6-(propane-2-sulfonamido)-1H-imidazo[4,5-b]pyridin-2-yl]phenyl}-5-cyanofuran-2-carboxamide] were, in that order, 17.9 µM and 2.43 µM.
On to `NC(=O)C1(C(=O)Nc2cnc3nc(-c4cc(NC(=O)c5ccco5)ccc4Cl)[nH]c3c2)CC1` [Example 64, 1-N-{2-[2-chloro-5-(furan-2-amido)phenyl]-1H-imidazo[4,5-b]pyridin-6-yl}cyclopropane-1,1-dicarboxamide], for which the concentration for a half-maximal effect (EC50) in test [1] is above 50 µM; in test [2], 21.1 µM.
With `Cc1ccc(C(=O)Nc2ccc(Cl)c(-c3nc4ncc(NC(=O)OC(C)C)cc4[nH]3)c2)o1` [Example 17, propan-2-yl N-{2-[2-chloro-5-(5-methylfuran-2-amido)phenyl]-1H-imidazo[4,5-b]pyridin-6-yl}carbamate], the EC50 worked out at 13.3 µM in test [1] and 7.6 µM in test [2].
On to `CN(C)c1cnc2nc(-c3cc(NC(=O)c4ccco4)ccc3Cl)[nH]c2c1` [Example 13, N-{4-chloro-3-[6-(dimethylamino)-1H-imidazo[4,5-b]pyridin-2-yl]phenyl}furan-2-carboxamide], for which the results for the EC50 in test [1] and in test [2] were 8.6 µM and 2.35 µM, respectively.
The like results for `CN(C)S(=O)(=O)Nc1cnc2nc(-c3cc(NC(=O)c4ccco4)ccc3Cl)[nH]c2c1` [Example 51, N-(4-chloro-3-{6-[(dimethylsulfamoyl)amino]-1H-imidazo[4,5-b]pyridin-2-yl}phenyl)furan-2-carboxamide] were, in that order, 8.8 µM and above 25 µM.
In the case of `CC(C)(N)CNc1cnc2nc(-c3cc(NC(=O)c4ccco4)ccc3Cl)[nH]c2c1` [Example 31, N-(3-{6-[(2-amino-2-methylpropyl)amino]-1H-imidazo[4,5-b]pyridin-2-yl}-4-chlorophenyl)furan-2-carboxamide], the figures for the EC50 in test [1] and in test [2] were above 50 µM and above 25 µM, respectively.
On to `NCCCNc1cnc2nc(-c3cc(NC(=O)c4ccc(F)o4)ccc3Cl)[nH]c2c1` [Example 69, N-(3-{6-[(3-aminopropyl)amino]-1H-imidazo[4,5-b]pyridin-2-yl}-4-chlorophenyl)-5-fluorofuran-2-carboxamide], for which the EC50 in test [1] is above 50 µM; in test [2] it was above 25 µM.

For orientation: EC50 means the concentration that produces a half-maximal response.
